Test results reported in ChEMBL document CHEMBL5584216, “Expanded library of novel 2,3-pyrrolidinedione analogues exhibit anti-biofilm activity” (2024).

What was measured:
Format in all cases: functional
Staphylococcus aureus [1] = experiment: Antimicrobial activity against methicillin-sensitive Staphylococcus aureus ATCC 25923 assessed as reduction in microbial growth at pH 9.0
Staphylococcus aureus [2] = experiment: Antimicrobial activity against methicillin-resistant Staphylococcus aureus ATCC 33591 assessed as reduction in microbial growth
Staphylococcus aureus [3] = experiment: Antibiofilm activity against methicillin-resistant Staphylococcus aureus ATCC BAA-44 at 5 uM relative to control
Staphylococcus aureus [4] = experiment: Antibiofilm activity against methicillin-resistant Staphylococcus aureus ATCC BAA-44 at 40 uM relative to control
Staphylococcus aureus [5] = experiment: Antibiofilm activity against methicillin-sensitive Staphylococcus aureus ATCC 25923 assessed as biofilm eradication at pH 9.0

SMILES | MIC (Staphylococcus aureus [1]) | MIC (Staphylococcus aureus [2]) | Activity (Staphylococcus aureus [3]) | Activity (Staphylococcus aureus [4]) | MBEC (Staphylococcus aureus [5])
CCC1C(c2ccc(C(F)(F)F)cc2)=C(O)C(=O)N1Cc1ccc(OC)cc1OC (stereo not given) | > 256 µg/mL | > 128 µg/mL | 63% | 57% | >512 µg/mL
CCC1C(c2ccc(C(F)(F)F)cc2)=C(O)C(=O)N1c1ccccc1 (stereo not given) | 16 µg/mL | 16 µg/mL | 5% | 85% | 128 µg/mL
CC(C)C1C(c2ccc(C(F)(F)F)cc2)=C(O)C(=O)N1c1ccccc1 (stereo not given) | 16 µg/mL | > 128 µg/mL | -5% | 3% | 512 µg/mL
CCC1C(c2ccc(C(F)(F)F)cc2)=C(O)C(=O)N1CCC(C)C (stereo not given) | 64 µg/mL | > 128 µg/mL | 47% | 43% | >512 µg/mL
CCCCCN1C(=O)C(O)=C(c2ccc(C(F)(F)F)cc2)C1CC (stereo not given) | 32 µg/mL | 16 µg/mL | 58% | 63% | 256 µg/mL
CCCCCCCN1C(=O)C(O)=C(c2ccc(C(F)(F)F)cc2)C1CC (stereo not given) | 32 µg/mL | 64 µg/mL | 64% | 59% | >512 µg/mL
CCC1C(c2ccc(C(F)(F)F)cc2)=C(O)C(=O)N1c1ccc(OC)c(OC)c1 (stereo not given) | 64 µg/mL | > 128 µg/mL | 17% | 70% | >512 µg/mL
CCCCCCN1C(=O)C(O)=C(c2ccc(C(F)(F)F)cc2)C1CC (stereo not given) | 32 µg/mL | 16 µg/mL | 59% | 85% | 512 µg/mL
CCC1C(c2ccc(C(F)(F)F)cc2)=C(O)C(=O)N1c1ccc(Br)cc1 (stereo not given) | 32 µg/mL | 32 µg/mL | 34% | 72% | 128 µg/mL
CCC1C(c2ccc(C(F)(F)F)cc2)=C(O)C(=O)N1Cc1cccs1 (stereo not given) | 32 µg/mL | > 128 µg/mL | 54% | 79% | 128 µg/mL
CCC1C(c2ccc(C(F)(F)F)cc2)=C(O)C(=O)N1c1ccccn1 (stereo not given) | 32 µg/mL | > 128 µg/mL | 4% | 31% | 128 µg/mL
CCC1C(c2ccc(C(F)(F)F)cc2)=C(O)C(=O)N1CCc1ccccc1 (stereo not given) | 64 µg/mL | > 128 µg/mL | 23% | 45% | 256 µg/mL
CCC1C(c2ccc(C(F)(F)F)cc2)=C(O)C(=O)N1c1ccc(F)cc1 (stereo not given) | 16 µg/mL | 16 µg/mL | 22% | 81% | 128 µg/mL
O=C1C(O)=C(c2ccc(C(F)(F)F)cc2)CN1c1ccccc1 | > 256 µg/mL | > 128 µg/mL | 26% | 8% | 512 µg/mL
CC1C(c2ccc(C(F)(F)F)cc2)=C(O)C(=O)N1c1ccccc1 (stereo not given) | 16 µg/mL | 32 µg/mL | -26% | 72% | 256 µg/mL
